# Assay results: BindingDB's records for doi:10.1016/s0960-894x(98)00476-4 (University of Michigan, 1999)
# pKi: −log10 of the molar value.
# Test: Binding affinity against Opioid receptor delta 1
smiles,measurement,value
"CC1(C)SSC[C@@H](NC(=O)[C@@H](N)Cc2ccccc2)C(=O)N[C@@H](Cc2ccccc2)C(=O)N[C@H]1C(=O)O [10-(2-Amino-3-phenyl-propionylamino)-7-benzyl-3,3-dimethyl-6,9-dioxo-1,2-dithia-5,8-diaza-cycloundecane-4-carboxylic acid]",pKi,7.38
"CC1(C)SCCSC[C@@H](NC(=O)[C@@H](N)Cc2ccccc2)C(=O)N[C@@H](Cc2ccccc2)C(=O)N[C@H]1C(N)=O [12-(2-Amino-3-phenyl-propionylamino)-9-benzyl-5,5-dimethyl-8,11-dioxo-1,4-dithia-7,10-diaza-cyclotridecane-6-carboxylic acid amide]",pKi,5.99
